Experimental data taken from PubChem BioAssay AID1963427 (Molecular Pharmacology Branch, DTP, NCI, 2024).

Tested on: 317291-083-R-J1-PDC complex spheroid growth
Experiment: Anticancer human tumor 317291-083-R-J1-PDC patient-derived soft tissue sarcoma cell line growth inhibition [Asc]
Details: for IC50: curve of first compound; for viability, T/C: stronger effect = lower value
Method: Multicellular complex tumor spheroid response to apoptosis pathway targeting inhibitors Alrizomadlin, Pelcitoclax, and Dasminapant in combination with a variety of drugs and investigational agents in selected tumor cell lines
The MDM2 inhibitor alrizomadlin, the Bcl-2/Bcl-xL inhibitor pelcitoclax, and the IAPs inhibitor dasminapant were evaluated both individually and in combination with standard of care and investigational anticancer small molecules within a complex spheroid model of solid tumors. . Complex spheroids include a stromal component modeled by human endothelial cells (HUVEC) and fibroblasts modeled by human mesenchymal stem cells (MSCs). The concentration ranges selected for each drug and investigational agent were based upon clinically achievable concentrations if the clinical Cmax of the agent was known.
Compounds. The drugs and investigational agents: alrizomadlin (APG-115; NSC831270), pelcitoclax (APG-1252; NSC835773), dasminapant (APG-1387;NSC834197), TAK-243 (NSC785004), copanlisib (NSC809693), olaparib (NSC753686), talazoparib (NSC767125), cobimetinib (NSC 768068), eltanexor (KPT-8602, NSC 794443), abemaciclib (NSC 768073), sotorasib (NSC818433), adagrasib (NSC 831453), MRTX-1133 (NSC 836407), Iadademestat (ORY1001, NSC 806812), and RMC-4630 (NSC839698), were obtained from the NCI Developmental Therapeutics Program Chemical Repository. The FDA-approved anticancer drug set is available from the Developmental Therapeutics Program at https://dtp.cancer.gov/organization/dscb/obtaining/available plates.htm. […] The stock solutions were prepared in dimethyl sulfoxide (DMSO, Sigma-Aldrich, St. Louis, MO, cat. D2650) at 800-fold the tested concentration and stored at -70 degrees C prior to their use. All drugs and investigational agents were tested over a range starting from a high concentration at or near the clinical Cmax and decreasing in half-log increments. If the clinical Cmax for an agent had not been determined, the highest concentration tested was 10 microM.
The patient-derived cancer (PDC) cell lines include five colon adenocarcinomas: 186277-243-T-J2-PDC, 616215-338-R-J1-PDC, 439559-082-T-J2-PDC, 463943-066-T-J2-PDC, and 519858-162-T-J1-PDC; three pancreatic carcinomas: 323965-272-R-J2-PDC, 521955-158-R6-J3-PDC, and 521955-158-R2-J5-PDC; two uterine sarcomas: 327498-152-R-J2-PDC and 993429-296-R-J1-PDC; two rhabdomyosarcomas: 755483-174-R-J1-PDC and 772245-204-R-J1-PDC; two soft tissue sarcomas: 126254-015-R-J1-PDC and 494315-158-R-J1-PDC; two malignant fibrous histiocytomas: 317291-083-R-J1-PDC and 596521-263-R-J1-PDC; two breast carcinomas: 171881-019-R-J1-PDC and 885512-296-R-J2-PDC; and one ovarian carcinoma: 6556581-035-R-J-PDC were obtained from the NCI PDMR, (https://pdmr.cancer.gov). The established cell lines HSSY-2 synovial sarcoma (RRID:CVCL 8719), SYO-1 synovial sarcoma (RRID:CVCL_7146), MPNST malignant peripheral neural sheath tumor were obtained from the Sloan Kettering Institute. The following established cell lines were purchased from the American Type Culture Collection (ATCC, Manassas, VA), Sor the received from the NCI repository:, PANC-1 pancreatic carcinoma (CRL-1469, RRID:CVCL_0480), OVCAR-5 ovarian carcinoma (RRID:CVCL_1628), OVCAR-8 ovarian carcinoma (RRID:CVCL_1629), , MCF-7 breast carcinoma (CRL-12584, RRID:CVCL_0031), MDA-MB-231 breast carcinoma (CRL-12532, RRID:CVCL_0062), NCI-H1876 small cell lung carcinoma (CRL-5902, RRID:CVCL_1503), NCI-H510A small cell lung carcinoma (HTB-184, RRID:CVCL_1565), NCI-H1417 (CRL-5869, RRID:CVCL_1469), and NCI-H196 small cell lung carcinoma (CRL-5823, RRID:CVCL_1509). Dr. Peter Houghton (Greehey Children's Cancer Research Institute, University of Texas Health Science Center, San Antonio, TX) provided Rh-18 rhabdomyosarcoma (RRID:CVCL_1659). Pooled donor human umbilical vein endothelial cells (HUVEC, Lonza, cat. CC-2519) and human mesenchymal stem cells (hMSC, Lonza, cat. PT-2501) were purchased from Lonza (Walkersville, MD).
Cell Culture. […]
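Also: compound exposure lasted seven days after spheroids formed for three days.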
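For viability, T/C in this document: 100% = DMSO vehicle control wells.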

Cn1ncnc1[C@H]1c2n[nH]c(=O)c3cc(F)cc(c23)N[C@@H]1c1ccc(F)cc1 + CCN1C(C(=O)NC23CCC(C(=O)O)(CC2)CC3)C(c2cccc(Cl)c2F)C2(C(=O)Nc3cc(Cl)ccc32)C12CCCCC2
IC50 (second compound 0.00949 µM): > 100 nM | IC50 (second compound 0.03 µM): > 100 nM | IC50 (second compound 0.0949 µM): > 100 nM | IC50 (second compound 0.3 µM): > 100 nM | IC50 (second compound 0.949 µM): > 100 nM | IC50 (second compound 3 µM): > 100 nM | viability, T/C (second compound 0.00949 µM, first compound 0.000316 µM): 108% | viability, T/C (second compound 0.00949 µM, first compound 0.001 µM): 88.4% | viability, T/C (second compound 0.00949 µM, first compound 0.00316 µM): 102% | viability, T/C (second compound 0.00949 µM, first compound 0.01 µM): 100% | viability, T/C (second compound 0.00949 µM, first compound 0.0316 µM): 81.9% | viability, T/C (second compound 0.00949 µM, first compound 0.1 µM): 66.9% | viability, T/C (second compound 0.03 µM, first compound 0.000316 µM): 99.6% | viability, T/C (second compound 0.03 µM, first compound 0.001 µM): 107% | viability, T/C (second compound 0.03 µM, first compound 0.00316 µM): 105% | viability, T/C (second compound 0.03 µM, first compound 0.01 µM): 81.3% | viability, T/C (second compound 0.03 µM, first compound 0.0316 µM): 76.1% | viability, T/C (second compound 0.03 µM, first compound 0.1 µM): 87.3% | viability, T/C (second compound 0.0949 µM, first compound 0.000316 µM): 95.3% | viability, T/C (second compound 0.0949 µM, first compound 0.001 µM): 96% | viability, T/C (second compound 0.0949 µM, first compound 0.00316 µM): 103% | viability, T/C (second compound 0.0949 µM, first compound 0.01 µM): 86.3% | viability, T/C (second compound 0.0949 µM, first compound 0.0316 µM): 77.6% | viability, T/C (second compound 0.0949 µM, first compound 0.1 µM): 70.4% | viability, T/C (second compound 0.3 µM, first compound 0.000316 µM): 106% | viability, T/C (second compound 0.3 µM, first compound 0.001 µM): 101% | viability, T/C (second compound 0.3 µM, first compound 0.00316 µM): 107% | viability, T/C (second compound 0.3 µM, first compound 0.01 µM): 89.5% | viability, T/C (second compound 0.3 µM, first compound 0.0316 µM): 73.9% | viability, T/C (second compound 0.3 µM, first compound 0.1 µM): 64.6% | viability, T/C (second compound 0.949 µM, first compound 0.000316 µM): 95.4% | viability, T/C (second compound 0.949 µM, first compound 0.001 µM): 89.3% | viability, T/C (second compound 0.949 µM, first compound 0.00316 µM): 103% | viability, T/C (second compound 0.949 µM, first compound 0.01 µM): 93.6% | viability, T/C (second compound 0.949 µM, first compound 0.0316 µM): 75.8% | viability, T/C (second compound 0.949 µM, first compound 0.1 µM): 72.1% | viability, T/C (second compound 3 µM, first compound 0.000316 µM): 82% | viability, T/C (second compound 3 µM, first compound 0.001 µM): 69% | viability, T/C (second compound 3 µM, first compound 0.00316 µM): 77.4% | viability, T/C (second compound 3 µM, first compound 0.01 µM): 79.7% | viability, T/C (second compound 3 µM, first compound 0.0316 µM): 65.1% | viability, T/C (second compound 3 µM, first compound 0.1 µM): 62.7%
